Target: T1, Catechol O-methyltransferase (Sus scrofa, UniProt Q99028)
T1 sequence (Q99028 whole entry): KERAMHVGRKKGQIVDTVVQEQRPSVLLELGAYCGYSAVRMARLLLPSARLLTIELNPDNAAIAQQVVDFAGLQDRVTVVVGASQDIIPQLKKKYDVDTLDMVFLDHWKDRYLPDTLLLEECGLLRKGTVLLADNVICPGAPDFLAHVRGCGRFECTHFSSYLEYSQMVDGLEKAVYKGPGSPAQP
Assay: Inhibitory activity against catechol O-methyltransferase
Details: read-out: I50

Structure (SMILES) | IC50 [mM]
C[S+](CCCCc1c[nH]c2ccccc12)C[C@H]1O[C@@H](n2cnc3c(N)ncnc32)[C@H](O)[C@@H]1O (some centres not stated) | 10
C[S+](CCCc1c[nH]c2ccccc12)C[C@H]1O[C@@H](n2cnc3c(N)ncnc32)[C@H](O)[C@@H]1O (some centres not stated) | > 10
